pIC50: −log10 of the molar value. Like-named read-outs stand apart in the source and are kept apart here.
Tests used:
[1] = tested on: MV4;11 cells; test: Cell viability assay (CellTiter-Glo) in MV4;11 cells, alone or with gilteritinib; format: cell-based; settings: Homo sapiens, MV4;11 cells, three days, CellTiter-Glo, read-out: MV4
[2] = tested on: MOLM-13 cells; test: Cell viability assay (CellTiter-Glo) in MOLM-13 cells, alone or with gilteritinib; format: cell-based; settings: Homo sapiens, MOLM-13 cells, three days, CellTiter-Glo
[3] = MV4-11, 72 h, compound alone (without gilteritinib), 11 IC50
[4] = MV4-11, 72 h, with gilteritinib 10 nM, 11 IC50 gilteritinib
[5] = MOLM-13, 72 h, compound alone (without gilteritinib), read-out: MOLM-13 IC50
[6] = MOLM-13, 72 h, with gilteritinib 20 nM, read-out: MOLM-13 IC50 gilteritinib
[7] = 72 h, compound alone (without gilteritinib), 11 IC50
[8] = 72 h, with gilteritinib 10 nM, 11 IC50 gilteritinib
[9] = 72 h, compound alone (without gilteritinib), read-out: MOLM-13 IC50
[10] = 72 h, with gilteritinib 20 nM, read-out: MOLM-13 IC50 gilteritinib

SMILES	pIC50 [1, 3]	pIC50 [1, 4]	pIC50 [2, 5]	pIC50 [2, 6]	pIC50 [1, 7]	pIC50 [1, 8]	pIC50 [2, 9]	pIC50 [2, 10]
CC(C)(CCCNc1ccc2c(c1)C(=O)N(C1CCC(=O)NC1=O)C2=O)C(=O)N1CCC(n2cc(-c3cnc4ccccc4n3)cn2)CC1 (stereo not shown) [GS-139, 5-((4,4-Dimethyl-5-oxo-5-(4-(4-(quinoxalin-2-yl)-1H-pyrazol-1-yl)piperidin-1-yl)pentyl)amino)-2-(2,6-dioxopiperidin-3-yl)isoindoline-1,3-dione]	6.00 to 7.00	6.00 to 7.00	< 6.00	< 6.00	–	–	–	–
O=C1CCC(N2Cc3cc(NCCCC4CC(n5cc(-c6cnc7ccccc7n6)cn5)C4)ccc3C2=O)C(=O)N1 (stereo not shown) [GS-140, 3-(1-Oxo-5-((3-(3-(4-(quinoxalin-2-yl)-1H-pyrazol-1-yl)cyclobutyl)propyl)amino)isoindolin-2-yl)piperidine-2,6-dione]	7.00 to 8.00	6.00 to 7.00	< 6.00	< 6.00	–	–	–	–
O=C1CCC(N2C(=O)c3ccc(NCCCC4(C(=O)N5CCC(n6cc(-c7cnc8ccccc8n7)cn6)CC5)CC4)cc3C2=O)C(=O)N1 (stereo not shown) [GS-141, 2-(2,6-Dioxopiperidin-3-yl)-5-((3-(1-(4-(4-(quinoxalin-2-yl)-1H-pyrazol-1-yl)piperidine-1-carbonyl)cyclopropyl)propyl)amino)isondoline-1,3-dione]	< 6.00	< 6.00	< 6.00	< 6.00	–	–	–	–
O=C1CCC(N2Cc3c(NC4CCCC(CCCCn5cc(-c6cnc7ccccc7n6)cn5)C4)cccc3C2=O)C(=O)N1 (stereo not shown) [GS-142, 3-(1-Oxo-4-((3-(4-(4-(quinoxalin-2-yl)-1H-pyrazol-1-yl)butyl)cyclohexyl)amino)isoindolin-2-yl)piperidine-2,6-dione]	< 6.00	< 6.00	< 6.00	< 6.00	–	–	–	–
C[C@@H]1CC(n2cc(-c3cnc4ccccc4n3)cn2)C[C@H](C)N1C(=O)CCCCNc1ccc2c(c1)C(=O)N(C1CCC(=O)NC1=O)C2=O (stereo partly drawn) [GS-143, 5-((5-((2R,6S)-2,6-dimethyl-4-(4-(quinoxalin-2-yl)-1H-pyrazol-1-yl)piperidin-1-yl)-5-oxopentyl)amino)-2-(2,6-dioxopiperidin-3-yl)isoindoline-1,3-dione]	< 6.00	< 6.00	< 6.00	< 6.00	–	–	–	–
O=C1CCC(N2C(=O)c3ccc(NCC45CC(C(=O)N6CCC(n7cc(-c8cnc9ccccc9n8)cn7)CC6)(C4)C5)cc3C2=O)C(=O)N1 (stereo not shown) [GS-144, 2-(2,6-Dioxopiperidin-3-yl)-5-(((3-(4-(4-(quinoxalin-2-yl)-1H-pyrazol-1-yl)piperidine-1-carbonyl)bicyclo[1.1.1]pentan-1-yl)methyl)amino)isoindoline-1,3-dione]	6.00 to 7.00	7.00 to 8.00	< 6.00	6.00 to 7.00	–	–	–	–
O=C1CCC(N2C(=O)c3ccc(NCCCC(F)(F)C(=O)N4CCC(n5cc(-c6cnc7ccccc7n6)cn5)CC4)cc3C2=O)C(=O)N1 (stereo not shown) [GS-145, 5-((4,4-Difluoro-5-oxo-5-(4-(4-(quinoxalin-2-yl)-1H-pyrazol-1-yl)piperidin-1-yl)pentyl)amino)-2-(2,6-dioxopiperidin-3-yl)isoindoline-1,3-dione]	6.00 to 7.00	7.00 to 8.00	6.00 to 7.00	> 8.00	–	–	–	–
Cc1nn(CCCCCCNc2ccc3c(c2)C(=O)N(C2CCC(=O)NC2=O)C3=O)c(C)c1-c1cnccn1 (stereo not shown) [GS-146, 5-((6-(3,5-Dimethyl-4-(pyrazin-2-yl)-1H-pyrazol-1-yl)hexyl)amino)-2-(2,6-dioxopiperidin-3-yl)isoindoline-1,3-dione]	< 6.00	7.00 to 8.00	6.00 to 7.00	7.00 to 8.00	–	–	–	–
O=C1CCC(N2C(=O)c3ccc(NCCCCC(=O)N4CCC(c5ccccc5)CC4)cc3C2=O)C(=O)N1 (stereo not shown) [GS-147, 2-(2,6-Dioxopiperidin-3-yl)-5-((5-oxo-5-(4-phenylpiperidin-1-yl)pentyl)amino)isoindoline-1,3-dione]	–	–	–	–	< 6.00	6.00 to 7.00	< 6.00	7.00 to 8.00
O=C1CCC(N2C(=O)c3ccc(NCCCC(=O)N4CCC(c5ccccc5)CC4)cc3C2=O)C(=O)N1 (stereo not shown) [GS-148, 2-(2,6-Dioxopiperidin-3-yl)-5-((4-oxo-4-(4-phenylpiperidin-1-yl)butyl)amino)isoindoline-1,3-dione]	–	–	–	–	< 6.00	6.00 to 7.00	6.00 to 7.00	7.00 to 8.00
O=C1CCC(N2C(=O)c3ccc(NCCNC(=O)N4CCC(n5cc(-c6cnc7ccccc7n6)cn5)CC4)cc3C2=O)C(=O)N1 (stereo not shown) [GS-149, N-(2-((2-(2,6-dioxopiperidin-3-yl)-1,3-dioxoisoindolin-5-yl)amino)ethyl)-4-(4-(quinoxalin-2-yl)-1H-pyrazol-1-yl)piperidine-1-carboxamide]	< 6.00	6.00 to 7.00	< 6.00	6.00 to 7.00	–	–	–	–
Cc1nn(CCCCCCNc2ccc3c(c2)C(=O)N(C2CCC(=O)NC2=O)C3=O)c(C)c1-c1ncccn1 (stereo not shown) [GS-150, 5-((6-(3,5-Dimethyl-4-(pyrimidin-2-yl)-1H-pyrazol-1-yl)hexyl)amino)-2-(2,6-dioxopiperidin-3-yl)isoindoline-1,3-dione]	6.00 to 7.00	7.00 to 8.00	6.00 to 7.00	> 8.00	–	–	–	–
Cc1nn(CCCCCCNc2ccc3c(c2)C(=O)N(C2CCC(=O)NC2=O)C3=O)c(C)c1-c1ncc2ccccc2n1 (stereo not shown) [GS-151, 5-((6-(3,5-Dimethyl-4-(quinazolin-2-yl)-1H-pyrazol-1-yl)hexyl)amino)-2-(2,6-dioxopiperidin-3-yl)isoindoline-1,3-dione]	7.00 to 8.00	> 8.00	7.00 to 8.00	> 8.00	–	–	–	–
O=C1CCC(N2C(=O)c3ccc(NCCc4cccc(N5CCC(n6cc(-c7cnc8ccccc8n7)cn6)CC5)c4)cc3C2=O)C(=O)N1 (stereo not shown) [GS-152, 2-(2,6-Dioxopiperidin-3-yl)-5-((3-(4-(4-(quinoxalin-2-yl)-1H-pyrazol-1-yl)piperidin-1-yl)phenethyl)amino)isoindoline-1,3-dione]	6.00 to 7.00	7.00 to 8.00	6.00 to 7.00	7.00 to 8.00	–	–	–	–
O=C1CCC(N2C(=O)c3ccc(NCCCCC(=O)N4CCC(n5cc(-c6cnc7ccccc7n6)cn5)CC45CC5)cc3C2=O)C(=O)N1 (stereo not shown) [GS-153, 2-(2,6-Dioxopiperidin-3-yl)-5-((5-oxo-5-(7-(4-(quinoxalin-2-yl)-1H-pyrazol-1-yl)-4-azaspiro[2.5]octan-4-yl)pentyl)amino)isoindoline-1,3-dione]	6.00 to 7.00	6.00 to 7.00	< 6.00	7.00 to 8.00	–	–	–	–
O=C1CCC(N2Cc3c(NC4CCCC(CCCC(=O)N5CCC(n6cc(-c7cnc8ccccc8n7)cn6)CC5)C4)cccc3C2=O)C(=O)N1 (stereo not shown) [GS-154, 3-(1-Oxo-4-((3-(4-oxo-4-(4-(4-(quinoxalin-2-yl)-1H-pyrazol-1-yl)piperidin-1-yl)butyl)cyclohexyl)amino)isoindolin-2-yl)piperidine-2,6-dione]	< 6.00	< 6.00	< 6.00	< 6.00	–	–	–	–
O=C1CCC(N2C(=O)c3ccc(NCC4CCC(Cn5cc(-c6cnc7ccccc7n6)cn5)CC4)cc3C2=O)C(=O)N1 (stereo not shown) [GS-155, 2-(2,6-Dioxopiperidin-3-yl)-5-(((4-((4-(quinoxalin-2-yl)-1H-pyrazol-1-yl)methyl)cyclohexyl)methyl)amino)isoindoline-1,3-dione]	6.00 to 7.00	< 6.00	< 6.00	6.00 to 7.00	–	–	–	–
Cc1nn(C2CC(CCCNc3ccc4c(c3)C(=O)N(C3CCC(=O)NC3=O)C4=O)C2)c(C)c1-c1cnc2cccc(F)c2n1 (stereo not shown) [GS-156, 2-(2,6-Dioxopiperidin-3-yl)-5-((3-(3-(4-(8-fluoroquinoxalin-2-yl)-3,5-dimethyl-1H-pyrazol-1-yl)cyclobutyl)propyl)amino)isoindoline-1,3-dione]	< 6.00	6.00 to 7.00	< 6.00	> 8.00	–	–	–	–
O=C1CCC(N2Cc3c(NC4CCCC(CCCn5cc(-c6cnc7ccccc7n6)cn5)C4)cccc3C2=O)C(=O)N1 (stereo not shown) [GS-157]	< 6.00	< 6.00	< 6.00	< 6.00	–	–	–	–
O=C1CCC(N2Cc3ccc(CCCC(=O)N4CCC(n5cc(-c6cnc7ccccc7n6)cn5)CC4)cc3C2=O)C(=O)N1 (stereo not shown) [GS-158, 3-(1-Oxo-6-(4-oxo-4-(4-(4-(quinoxalin-2-yl)-1H-pyrazol-1-yl)piperidin-1-yl)butyl)isoindolin-2-yl)piperidine-2,6-dione]	< 6.00	< 6.00	< 6.00	< 6.00	–	–	–	–
O=C1CCC(N2Cc3ccc(CCCC(=O)N4CCC(n5cc(-c6ccc7ccccc7n6)cn5)CC4)cc3C2=O)C(=O)N1 (stereo not shown) [GS-159, 3-(1-Oxo-6-(4-oxo-4-(4-(4-(quinolin-2-yl)-1H-pyrazol-1-yl)piperidin-1-yl)butyl)isoindolin-2-yl)piperidine-2,6-dione]	< 6.00	< 6.00	< 6.00	< 6.00	–	–	–	–
O=C1CCC(N2Cc3ccc(CCCCC(=O)N4CCC(n5cc(-c6ccc7ccccc7n6)cn5)CC4)cc3C2=O)C(=O)N1 (stereo not shown) [GS-160, 3-(1-Oxo-6-(5-oxo-5-(4-(4-(quinolin-2-yl)-1H-pyrazol-1-yl)piperidin-1-yl)pentyl)isoindolin-2-yl)piperidine-2,6-dione]	6.00 to 7.00	7.00 to 8.00	< 6.00	7.00 to 8.00	–	–	–	–
